Laboratory results reported in paper PMC9112550, “Optimization of the antimicrobial peptide Bac7 by deep mutational scanning” (BMC Biology, 2022).
Where no end group is shown, it is not given here.

Tests used:
[1] = system: E. coli clinical isolates; assay type: cell-based; conditions: clinical isolates of E. coli (n=45) including MDR (ESBL, CRE); MHB II; 18 h, 37°C
Protocol: (§1) Bacterial cells were grown in cation-adjusted Mueller Hinton Broth (MHB II) overnight to stationary phase. The cultures were then supplemented with 200 g l^−1 glycerol, aliquoted, and frozen at −80°C. […] The purified peptides were thawed and the concentration was determined by RP-HPLC as described before. The peptides were diluted with sterile water to 4-fold the desired assays starting concentration and to a final volume of 50 μl. […] The first well of each MIC dilution series was filled with 20 μl of 2-fold concentrated MHB II, wells 2–11 with 20 μl of MHB II, and well 12 with 40 μl MHB II (sterility control). Next, 20 μl of the peptide dilution was added to the first well, mixed, and a log2-serial dilution was performed from wells 1 to 10 (20 μl transfer volume). Well 11 served as growth control (i.e., no peptide added). In the last step, 20 μl of the bacterial cell suspension was added to wells 1–11 either using the pipetting robot (E. coli TOP10, BW25113, BW25113 ΔsbmA, and ATCC 25922) or by manual pipetting (E. coli clinical isolates). The plates were sealed airtight and incubated for 18 h without shaking at 37°C before reading the OD using an Infinite 200 PRO plate reader (Tecan, Männedorf, CH). The MIC value corresponded to the concentration at which no growth of the bacterial strain was observed (< 5% of the OD value of the growth control) and was evaluated using a custom-written script in the programming language R. MIC values of E. coli TOP10, BW25113, BW25113 ΔsbmA, and ATCC 25922 were determined at least in biological triplicates. All MIC experiments were determined in technical replicate.

E. coli BW25113 = assay type: cell-based; conditions: E. coli BW25113 parental strain; MHB II; 18 h, 37°C; averaged (n>3)
Protocol: as §1

E. coli BW25113 ΔsbmA = assay type: cell-based; conditions: MHB II, 18 h, 37°C, averaged (n>3)
Protocol: as §1

E. coli TOP10 [2] = assay type: cell-based
Protocol: as §1

E. coli TOP10 [3] = experiment: Membrane damage assay in MHB I (GFP loss, PI uptake); assay type: cell-based; conditions: not cation-adjusted, n = 3
Protocol: For membrane damage assays, the bacterial strain […] [pSEVA271-sfGFP] and the peptide dilutions were prepared as described for the MIC measurements but by scaling all volumes 5-fold and using 96-well plates (polypropylene, U-bottom, 650201, Greiner, Kremsmünster, AT) with a final assay volume of 200 μl. The bacterial strain suspension was furthermore supplemented with a final concentration of 1 μg ml^−1 propidium iodide (PI, from a 1 mg ml^−1 stock in water) just before pipetting the assay. After 1 h incubation at room temperature, the cell membrane integrity was assessed by flow cytometry using a Fortessa Analyzer (BD Biosciences) and appropriate filters for GFP and PI (488-nm laser with 530/30-nm bandpass filter and 579-nm laser with 610/20-nm bandpass filter). […]
Fig. S8 | Membrane damage assay. Membrane damage assays measuring PI uptake of the cells (% cells are given that gained PI fluorescence) and GFP loss (% of the cells are given that lost sfGFP fluorescence) when incubating E. coli TOP10 cells with various peptide concentrations in MHB I (n=3; error bars = 1SD).Fig. S7 | Interactions observed per amino acid residue. For each amino acid residue, the occurrences of interactions at all positions were counted. No antagonistic effect was detected for glutamate and valine residues. No interaction was detected for serine. […]

E. coli ATCC 25922 = experiment: In vivo efficacy, murine septicemia model; conditions: 10 CD-1 mice, up to 3 days
Protocol: CD-1 mice (7 weeks old, 27–28 g female) were used (Charles River, France). These animals were housed for a week of acclimation period before the experiment in a protected area in the ‘Centre de Zootechnie de l’Université de Bourgogne’ (Biosafety level 2 facility) and fed ad libitum according to the current recommendations by the European Institute of Health. Housing took place in rooms where a 12-h/12 h light/dark cycle is applied, the temperature ranges from 18 to 21°C and the relative humidity from 45 to 65%. The animal facility is authorized by the French authorities (Agreement N° C 21 464 04 EA). […]
For animal experiments, Bac7PS was synthesized at Genscript as acetate salt and with a purity of 92%. […] First, the maximum tolerated dose (MTD) for the peptide was determined by testing different peptide doses in 8 groups with 5 animals per group. The peptide solution was administered once by intraperitoneal (IP) injection with a volume of between 94 and 240 μl (depending on the weight of the animal and the dosage) and the animals were monitored for 2 h following the injection, then 6 to 8 h later, and then once or twice a day, depending on the clinical status, up to 5 days post-injection. […] As endpoint, the wellbeing and survival rate, on a twice daily based evaluation for up to 3 days, was monitored.

Sequence: RRIRIRPPRLPRPRPRPYFMPRP [Bac7PS]
- MIC50 [1]: 2.9 µM
- MIC (E. coli BW25113): 3.6 µM
- MIC (E. coli BW25113 ΔsbmA): 14.4 µM
- reduction of the MIC vs Bac7_1-23 (E. coli TOP10 [2]): approximately twofold
- MIC (E. coli TOP10 [2]; MHB II, 18 h, 37°C, averaged (n>3), <5% of OD of growth control): 2.1 µM
- membrane damage, compared with MHB II (E. coli TOP10 [3]): more pronounced
- survival (E. coli ATCC 25922; 10 mg kg^−1 IP twice (1 and 4 h post-infection)): 60%
- survival (E. coli ATCC 25922; 30 mg kg^−1 IP twice (1 and 4 h post-infection)): 80%
